According to patent US7608407B2, “Fluorescence polarization assay for determining histidine decarboxylase activity” (Boehringer Ingelheim Pharmaceuticals, Inc., priority 2004, dated 2009):
One block for each compound: values may come before it.

Tests used:
[1] = molecular target: anti-histamine antibody D22.12; experiment: Displacement of FITC-histamine binding to the anti-histamine antibody by competitor ligand; design: species or system mice
Description: Triplicate determinations in a 96-well plate were performed as described in the Methods, with 6 nM FITC-histamine, 50 nM anti-histamine antibody, and the indicated concentration of competitor ligand.
(§1) In the standard assay, HDC, diluted to 90 nM in HDC Buffer plus 0.9 mM DTT and 99 μM PLP, was added to a black opaque 384-well plate in 20 μL. Test compound in HDC Buffer plus 6% DMSO or buffer alone was added to the plate in 10 μL. 36 nM FITC-histidine and 3.6 mM histidine were combined in FP Buffer and transferred to the plate in 10 μL. Finally, 90 nM […] antibody was added in 20 μL of FP Buffer. Thus, the final concentrations in the assay were: HDC 30 nM, FITC-histidine 6 nM, histidine 600 μM, anti-histamine antibody 30 nM, DMSO 1%. The plate was incubated at 37° C. for 90 minutes. The fluorescence polarization signal was read on an LJL Analyst (Molecular Devices, Sunnyvale, Calif.) with excitation at 485 nm, emission at 530 nm, a fluorescein dichroic mirror at 505 nm and G factor set to 1. A 96-well plate version of the assay, used in assay development, was performed as described above with twice the volumes indicated for 384-well plates.
We first determined the affinity of the probe for the antibody and the specificity of the interaction, both of which are crucial to constructing a robust assay in a competitive mode. […] The probe concentration was held at 6 nM and the antibody concentration varied over approximately 3 logs. […] Probe and antibody concentrations were held constant at 6 and 50 nM, respectively, while the concentrations of histamine and histidine were varied as shown.

HDC = molecular target: T1, HDC (Mus musculus, UniProt P23738); settings: Watabe et al 1992; read-out: Reported Km; cited from earlier work
T1 sequence (P23738 1-662): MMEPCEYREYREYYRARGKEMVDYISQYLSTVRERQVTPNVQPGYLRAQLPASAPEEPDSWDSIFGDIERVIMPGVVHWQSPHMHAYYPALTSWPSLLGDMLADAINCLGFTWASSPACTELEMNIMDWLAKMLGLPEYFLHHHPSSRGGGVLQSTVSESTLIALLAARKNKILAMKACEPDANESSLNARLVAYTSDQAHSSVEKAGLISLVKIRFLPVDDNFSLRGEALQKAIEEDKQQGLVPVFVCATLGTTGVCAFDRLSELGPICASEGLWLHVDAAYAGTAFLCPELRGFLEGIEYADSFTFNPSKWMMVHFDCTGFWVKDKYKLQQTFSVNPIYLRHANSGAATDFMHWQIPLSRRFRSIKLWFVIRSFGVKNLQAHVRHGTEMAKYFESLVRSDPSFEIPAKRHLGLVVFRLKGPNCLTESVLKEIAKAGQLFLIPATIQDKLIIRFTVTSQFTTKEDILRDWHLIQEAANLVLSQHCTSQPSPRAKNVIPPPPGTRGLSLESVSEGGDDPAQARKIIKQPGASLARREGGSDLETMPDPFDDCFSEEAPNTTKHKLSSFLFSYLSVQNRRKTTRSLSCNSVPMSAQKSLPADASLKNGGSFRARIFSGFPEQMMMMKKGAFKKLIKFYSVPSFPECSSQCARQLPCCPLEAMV

human HDC = molecular target: T2, human HDC (Homo sapiens, UniProt P19113); experiment: Histidine decarboxylase fluorescence polarization standard assay; assay type: biochemical; settings: standard assay: 30 nM HDC, 600 μM histidine, 90 minutes at 37° C.; read-out: IC50 for inhibition of HDC
T2 construct: containing the first 1431 bases (amino acid residues 1-477) of HDC; made in house; host or cells: Sf9 insect cells (baculovirus, pDEST 20)
T2 sequence (P19113 1-477 S148Q): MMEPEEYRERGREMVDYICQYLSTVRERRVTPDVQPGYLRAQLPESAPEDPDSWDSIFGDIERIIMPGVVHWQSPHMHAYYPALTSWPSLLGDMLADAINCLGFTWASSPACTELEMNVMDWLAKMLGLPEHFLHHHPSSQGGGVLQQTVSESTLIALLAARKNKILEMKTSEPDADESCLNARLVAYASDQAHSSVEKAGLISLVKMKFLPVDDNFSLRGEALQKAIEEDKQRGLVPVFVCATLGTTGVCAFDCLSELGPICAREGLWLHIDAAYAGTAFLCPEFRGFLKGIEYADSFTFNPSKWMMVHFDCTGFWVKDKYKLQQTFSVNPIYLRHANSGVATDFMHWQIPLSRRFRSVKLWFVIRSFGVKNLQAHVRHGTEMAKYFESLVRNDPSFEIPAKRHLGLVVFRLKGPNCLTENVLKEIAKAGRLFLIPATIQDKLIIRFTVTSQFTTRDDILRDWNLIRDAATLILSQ
Description: as §1

[2] = molecular target: anti-histamine antibody D22.12; settings: read-out: Kd (dissociation constant) of probe for antibody; FITC-histamine at 6 nM, antibody concentration varied over approximately 3 logs
Description: as §1
We first determined the affinity of the probe for the antibody and the specificity of the interaction, both of which are crucial to constructing a robust assay in a competitive mode. […] The probe concentration was held at 6 nM and the antibody concentration varied over approximately 3 logs. […]

Competition with FITC-histamine for binding to the antibody ([1]; 6 nM FITC-histamine, 50 nM antibody, over the 5 log range examined): unable to compete
Compound: N[C@@H](Cc1c[nH]cn1)C(=O)O [Histidine, L-Histidine]
Km (HDC): 200 to 400 µM

IC50 (human HDC): 7.7 µM
Compound: COC(=O)C(N)Cc1c[nH]cn1 (stereo not shown) [methyl ester histidine]

IC50 (human HDC): 1.4 µM
Compound: N[C@@](CF)(Cc1cnc[nH]1)C(=O)O [α-fluoromethyl histidine]

Further lines, the compound ahead of its results:

Compound: NCCc1c[nH]cn1 [Histamine, histamine]
IC50 ([1]; 6 nM FITC-histamine, 50 nM anti-histamine antibody, read-out: IC50 for competition with the probe for antibody binding): 135 µM | Selectivity for histamine over histidine ([1]; FP assay): > 100 fold

Compound: N-[3′,6′-dihydroxy-3-oxospiro[isobenzofuran-[(3H), 9′-[9H]xanthene-5(or 6)-yl]-N′-[2-(1H-imidazol-4-yl)ethyl]-2,4-dimethylthiourea, disodium salt [FITC-histamine]
Kd [2]: 0.0039 µM
